assay: gradient 5% acetonitrile 3 min, to 50% in 2 min, to 85% in 15 min, held 3 min, 100 µL/min; details: column: Zorbax Extend-C18 2.1 x 50 mm; eluents: water / acetonitrile, 0.1% formic acid
In short: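 In both positive and negative ionization mode, a quadrupole time-of-flight mass spectrometer coupled to HPLC analyzed pure standards run in mixtures of ~100 molecules. The Zorbax Extend-C18 column (2.1 × 50 mm, 1.8 μm) was operated at 100 μL/min with water and acetonitrile, each containing 0.1% formic acid. The dead volume was 40 μL and the dwell volume 900 μL. Retention time came from adduct peaks that were computationally picked and individually inspected by hand.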

In order of rising RP-LC retention time:
1. Cc1cnc(CC2CCN(C(=O)C(C)C)C2)n1C1CC1 (stereo not given)  557 s
2. Cc1cccc(-c2[nH]ncc2CN)c1  561 s
3. CCC(CC)C(=O)N1CCC2(CC1)CN(C)CC2c1nc(-c2ccncc2)n[nH]1 (stereo not given)  565 s
4. Cc1cc(C)n(-c2ccnc(N3CCC(C(=O)NCCc4ccccn4)CC3)n2)n1  575 s
5. Nc1nc(N2CCN(c3ccccn3)CC2)ncc1C(=O)Nc1ccccc1  585 s
6. Cn1nc(C(=O)N2CCCCC2)c2c1CCN(C(=O)CCC(=O)NCCN1CCCCC1)C2  586 s
7. Cc1ccc2cc(CN3CCC4(CCC4O)CC3)c(=O)[nH]c2c1 (stereo not given)  590 s
8. Cc1ccc2nc(NC(=O)CN3CCC(C(N)=O)CC3)sc2c1  592 s
9. CCCN(Cc1ccc(OC)c(OC)c1)Cc1cc(=O)n2ccccc2n1  592 s
10. CSc1ccccc1CN1CCC(CNC(=O)C(=O)NCc2ccc(F)cc2)CC1  595 s
11. CN1C(=O)c2[nH]nc(-c3ccccc3)c2C1c1cccnc1 (stereo not given)  609 s
12. COc1cc(Nc2c(C(=O)N3CCCC3)cnc3nc(C)ccc23)cc(OC)c1  616 s
13. CCNC(=O)c1cc(C(C)C)[nH]n1  618 s
14. Cc1nc(OCC(=O)NCCN2CCCC2)c2c(-c3ccccc3)noc2n1  627 s
15. CCOC(=O)c1c(C)c(CCC(=O)N2CCN(CC)CC2)n(CC)c1C  631 s
16. O=C(CN1C(=O)NC2(CCCCC2)C1=O)Nc1cccc(F)c1  633 s
17. CSc1ccccc1C(=O)NCC1CCN(S(C)(=O)=O)CC1  641 s
18. O=C(Nc1cc(Cl)cc(Cl)c1)N1CCc2nc[nH]c2C1  642 s
19. CCCNC(=O)CC1CCN(C(=O)c2c(C)[nH]c(C(=O)OCC)c2C)CC1  653 s
20. CNC(=O)C1CCN(S(=O)(=O)Cc2ccccc2)CC1  655 s
21. O=C(Nc1ccon1)c1ccc(-n2cccn2)nn1  659 s
22. CCCn1cnc2cc(CNC(=O)c3cc4ccccc4[nH]3)ccc21  659 s
23. CC(C)n1c(=O)sc2cc(S(=O)(=O)N3CCC(C(=O)NCc4ccccn4)CC3)ccc21  660 s
24. O=C(Nc1ccc(F)cc1F)c1ncccn1  661 s
25. CCOC(=O)c1c(C)[nH]c(C)c1S(=O)(=O)N1CCC(C(=O)NCc2cccc(C)c2)CC1  668 s
26. Cc1ccn2c(NC(=O)c3ccc(F)cc3)c(-c3ccc(F)cc3)nc2c1  672 s
27. Cc1c(C(=O)Nc2ccc(CC(=O)NC3CC3)cc2)cnn1-c1ccccc1  675 s
28. CC(C)CCNC(=O)Cc1cn(C)c2ncccc12  679 s
29. Cc1nn(CC(=O)N2CCCC2)c(=O)c2nc(C(C)C)sc12  680 s
30. Cc1nc2nc(-c3ccc(C(C)(C)C)cc3)nn2c(C)c1CC(=O)N1CCN(C)CC1  682 s
31. COc1ccc(CNC(=O)C2CCCN(c3nnc4cccc(C)n34)C2)c(OC)c1 (stereo not given)  688 s
32. CN(C)S(=O)(=O)c1ccc2c(c1)N(CC(=O)NC1CCCCCCC1)C(=O)C1CCCCN21 (stereo not given)  692 s
33. COc1ccc(-c2nc3cc(C)ccn3c2NC(=O)COc2ccccc2)cc1  694 s
34. COc1ccc(-c2nnc(CC(=O)NCC(C)C)o2)cc1  705 s
35. COc1ccc(NC(=O)c2[nH]c3cc(C)sc3c2CN2CCCC2)c(C)c1  708 s
36. CCNC(=O)c1cc2c(-c3cc(OCCN4CCCC4)c(Cl)cc3Cl)nc(N)nc2s1  711 s
37. Cc1ccc(CN2CCN(C3CCN(C(=O)c4ccc(Br)o4)CC3)C(=O)C2=O)cc1  718 s
38. O=C(Nc1cccc(-c2nnc3n2CCCC3)c1)C1(c2ccccc2)CC1  719 s
39. CCC(=O)N1c2ccc(S(=O)(=O)N3CCCCC3)cc2CC1C(=O)NCCc1ccccc1 (stereo not given)  720 s
40. CCCn1cnc2cc(CNC(=O)c3ccc(-n4c(C)ccc4C)cc3)ccc21  722 s
41. O=C(CC1CCN(C(=O)c2ccc3nc(-c4ccccc4)oc3c2)CC1)NCC1CCCO1 (stereo not given)  722 s
42. COc1nccnc1N1CCC(NC(=O)COc2ccc(F)cc2)C1 (stereo not given)  726 s
43. CC(=O)Nc1nnc(SCC(=O)Nc2ccc(OC(F)(F)F)cc2)s1  733 s
44. Cn1nc(CNC(=O)c2cccc(NC(=O)c3ccco3)c2)c2ccccc21  736 s
45. Cc1cccc2nc(-c3cccc(Br)c3)c(Nc3ccc4c(c3)OCCO4)n12  739 s
46. Cc1cccc(C)c1NC(=O)CN1C(=O)NC2(CCCCC2)C1=O  745 s
47. Cc1oc(C2CCN(C(=O)c3ccsc3)CC2)nc1C(=O)N1CCCCC1  745 s
48. CCCn1nc2n(c1=O)CCN(Cc1ccc(C)c(C)c1)C2  749 s
49. CCN(CC)S(=O)(=O)N1CCC(C(=O)NCCc2ccc(OC)c(OC)c2)CC1  751 s
50. CC(C)(C)c1ccc(CN2CCC(OC3CCN(C4CCCC4)C3=O)CC2)cc1 (stereo not given)  758 s
51. COc1ccc(NS(=O)(=O)c2cc3c(s2)CCN(C(=O)C2CC2)C3)cc1F  762 s
52. CCOc1cc(-c2ccc(C)cc2)nc2ccc(NC(=O)c3ccco3)cc12  764 s
53. Cc1cccc(CNC(=O)C2(C)Cn3cnc(C(=O)NC4CCCC4)c3C(=O)N2C2CC2)c1 (stereo not given)  767 s
54. CC(C)N1CCn2cc(S(=O)(=O)NCc3ccccc3Cl)cc2C1=O  769 s
55. COc1ccc(CCNc2ncnc3c2cnn3-c2ccccc2)cc1OC  783 s
56. O=C(NCCc1ccco1)c1c(-c2ccccc2)nnc2ccccc12  784 s
57. COc1ccc(Cl)cc1Nc1c(-c2nc(C)no2)cnc2nc(C)ccc12  794 s
58. COC(=O)C(C)NC(=O)NCc1cccn1Cc1ccccc1F (stereo not given)  804 s
59. COCCC(=O)NC1CCN(C2=NS(=O)(=O)C(c3ccc(C(C)C)cc3)=C2C)CC1  813 s
60. COC(=O)C1=CN(c2cccc(F)c2)c2ccc(F)cc2S1(=O)=O  838 s
61. Cc1cc2c(cc1CNC(=O)c1cc3c(cc1C)OCCCO3)OCCO2  846 s
62. O=C(COc1cccc2c1CCN(Cc1ccc(F)cc1)C2=O)Nc1ccc2c(c1)OCO2  846 s
63. CCOc1ccccc1NC(=O)Cn1cccc(S(=O)(=O)N2CCC(C)CC2)c1=O  857 s
64. COc1ccc(CN2C(=O)[C@H](OC)[C@@H]2C2=CCN(C(=O)C3(c4ccccc4)CC3)CC2)cc1  870 s
65. Cc1ccccc1-c1noc(Cn2ccn(-c3ccccc3C)c(=O)c2=O)n1  880 s
66. Cc1ccc2ncn(C3CCN(C(=O)Nc4ccc(C)c(Cl)c4)CC3)c(=O)c2c1  888 s
67. CC(C)NC(=O)c1ccc(OCC2CCN(C(=O)c3ccc(Cl)cc3)CC2)cc1  918 s
68. CCOC(=O)c1sc(NC(=O)C2CC2)nc1-c1ccccc1  942 s
69. CCn1cc(-c2nc(C)c(C(=O)N3CCCCCC3)s2)c2cccnc21  942 s
70. CCc1ccc(OCc2nc(CCN(C)C(=O)Nc3ccc(OC)cc3)no2)cc1  949 s
71. CC(C)CNC(=O)CCc1nc2ccccc2n(CC(=O)Nc2ccc(C(C)C)cc2)c1=O  949 s
72. Cc1nn2c(CNS(=O)(=O)Cc3ccc(Cl)cc3)c(-c3ccccc3)nc2s1  954 s
73. COc1cc(OC)cc(N2C(=O)C3N=NN(Cc4nc(-c5ccccc5)no4)C3C2=O)c1 (stereo not given)  959 s
74. CS(=O)(=O)Nc1cccc(NC(=O)Cn2cccn2)c1  970 s
75. CC(C)C(=O)N1CCc2c([nH]c3ccccc23)C12C(=O)N(C)c1ccc(Br)cc12 (stereo not given)  976 s
76. COc1ccc(-c2nc(C3CC(=O)N(c4ccc(Cl)cc4)C3)no2)c(OC)c1 (stereo not given)  996 s
77. CC(=O)c1cccc(NC(=O)c2csc3c2CCCC3)c1  996 s
78. O=C(NCc1ccc2c(c1)OCO2)c1cnn2c3c(cnc12)CCCCCC3  1000 s
79. CCOc1ccc(-c2ccc(=O)n(CCc3nc(-c4cc(OC)cc(OC)c4)no3)n2)cc1  1020 s
80. CCOc1ccccc1N1CCN(S(=O)(=O)c2nn(C)cc2C(=O)NC2CCCC2)CC1  1030 s
81. COc1ccc(-c2noc(C3CCCN3C(=O)c3ccc(C)c(F)c3)n2)cc1 (stereo not given)  1040 s
82. Cc1nn(-c2cccc(Cl)c2)c2nc(N3CCCC(C(=O)NC4CC4)C3)sc12 (stereo not given)  1060 s
83. Cc1ccc(-c2noc(C3CCCN3C(=O)C3CCN(S(=O)(=O)c4ccc(C)cc4)CC3)n2)cc1 (stereo not given)  1080 s
84. COc1ccc(S(=O)(=O)N2CCc3nc(-c4ccc(F)cc4)ncc3C2)cc1Cl  1140 s
85. Cc1cccc(NC(=O)Nc2nccn(-c3ccc4c(c3)CCC4)c2=O)c1  1140 s
86. CCc1ccc(NC(=O)c2cn(CC3CCCO3)cc3c(=O)n(-c4ccccc4)nc2-3)cc1 (stereo not given)  1160 s
87. Cc1cccc(OCc2nc(C)c(C(=O)Nc3nc(-c4ccccc4)cs3)s2)c1  1230 s
88. Cc1nc2cc(-c3noc(-c4ccc(Cl)cc4Cl)n3)ccc2o1  1250 s
89. Clc1ccc(-c2csc(Cc3nc(-c4ccccc4)no3)n2)cc1  1310 s
90. CCCCCn1c(=O)c2ccccc2n(Cc2nc(-c3ccc(C)cc3)no2)c1=O  1350 s
